The values below come from patent US20230101335A1, “EX VIVO TISSUE EXPLANT AND GRAFT PLATFORM AND USES THEREOF” (Massachusetts Institute of Technology, priority 2021, published 2023).

Read-outs that look alike come from different tables or passages of the source.

The subject of one series is HCT15 cells. As to the kind of experiment: CellTiter-Glo Luminescent cell viability assay. The format is cell-based. Particulars: System: Cell (HCT15). For orientation: In ATP-based viability assays light output follows the ATP content of the culture.
In series [1] the test system is CRC organoids (APC−/TP53−/SMAD4− triple knockout). As to the kind of experiment: CellTiter-Glo cytotoxicity assay on CRISPR-engineered CRC organoids. Particulars: read-out: IC50 (uM) ± SD.
The subject of the next series is Colo320DM cells. As to the kind of experiment: CellTiter-Glo Luminescent cell viability assay. The format is cell-based. As to conditions: System: Cell (Colo320DM).
A further series relates to HT29 cells. As to the kind of experiment: CellTiter-Glo Luminescent cell viability assay. In kind it is cell-based. Particulars: Homo sapiens, HT-29; System: Cell (HT29).
In a further series the test system is Caco2 cells. As to the kind of experiment: CellTiter-Glo Luminescent cell viability assay. The format is cell-based. As to conditions: Homo sapiens, Caco-2; System: Cell (Caco2).
Series [2] has as its system CRC organoids engrafted in swine small intestine tissue. As to the kind of experiment: ex vivo CRC organoid-in-intestine platform, GFP+ tumor cells by flow cytometry. The format is cell-based. As to conditions: for IC50: System: Tissue (pig ex vivo colorectal cancer platform), 24 hours drug treatment. In general terms: A flow cytometer gives signals particle by particle.

Another series deals with P-gp (Homo sapiens, UniProt P08183). As to conditions: previous work; cited from earlier work.
Sequence of P-gp (P08183 whole entry): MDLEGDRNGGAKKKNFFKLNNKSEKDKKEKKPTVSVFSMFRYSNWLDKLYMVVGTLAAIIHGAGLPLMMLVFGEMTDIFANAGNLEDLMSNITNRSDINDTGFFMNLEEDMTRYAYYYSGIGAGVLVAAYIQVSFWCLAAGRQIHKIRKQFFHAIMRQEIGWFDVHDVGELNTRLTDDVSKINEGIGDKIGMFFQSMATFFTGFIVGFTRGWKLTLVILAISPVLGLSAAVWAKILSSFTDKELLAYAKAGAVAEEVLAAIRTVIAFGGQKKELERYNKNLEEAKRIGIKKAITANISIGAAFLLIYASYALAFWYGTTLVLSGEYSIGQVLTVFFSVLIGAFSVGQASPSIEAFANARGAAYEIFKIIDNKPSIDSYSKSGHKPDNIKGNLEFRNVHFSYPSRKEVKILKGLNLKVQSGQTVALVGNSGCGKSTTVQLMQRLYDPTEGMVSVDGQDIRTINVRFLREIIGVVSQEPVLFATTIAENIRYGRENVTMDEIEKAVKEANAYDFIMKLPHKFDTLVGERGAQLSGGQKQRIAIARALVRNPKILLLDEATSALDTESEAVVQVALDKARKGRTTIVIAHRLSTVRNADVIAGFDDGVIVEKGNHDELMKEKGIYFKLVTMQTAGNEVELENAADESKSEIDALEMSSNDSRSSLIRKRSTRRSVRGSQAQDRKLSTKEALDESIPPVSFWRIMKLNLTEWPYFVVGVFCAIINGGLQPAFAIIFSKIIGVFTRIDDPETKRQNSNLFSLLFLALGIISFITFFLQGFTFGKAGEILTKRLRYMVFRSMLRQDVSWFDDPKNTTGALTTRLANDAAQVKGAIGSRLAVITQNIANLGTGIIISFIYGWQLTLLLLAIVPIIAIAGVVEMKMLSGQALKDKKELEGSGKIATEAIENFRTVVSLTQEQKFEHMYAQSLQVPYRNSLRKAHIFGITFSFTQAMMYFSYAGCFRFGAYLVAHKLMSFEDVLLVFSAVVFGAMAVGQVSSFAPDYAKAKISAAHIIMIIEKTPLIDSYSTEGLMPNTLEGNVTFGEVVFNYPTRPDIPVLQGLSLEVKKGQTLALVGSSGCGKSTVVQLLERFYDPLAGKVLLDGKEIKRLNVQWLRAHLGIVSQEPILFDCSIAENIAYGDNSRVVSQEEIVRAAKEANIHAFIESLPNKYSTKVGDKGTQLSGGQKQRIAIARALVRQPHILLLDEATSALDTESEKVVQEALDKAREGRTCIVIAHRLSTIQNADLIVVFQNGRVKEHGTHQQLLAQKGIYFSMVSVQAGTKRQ

In general, IC50 refers to the point on the concentration scale where inhibition reaches its midpoint. Turning to `COc1cccc2c1C(=O)c1c(O)c3c(c(O)c1C2=O)C[C@@](O)(C(=O)CO)C[C@@H]3O[C@H]1C[C@H](N)[C@H](O)[C@H](C)O1` [Doxirubicine, doxorubicin], the IC50 with HCT15 cells (Homo sapiens, HCT-15) stood at 1.51 ± 0.226 µM; in series [1] (Sus scrofa), 10.1 ± 2.33 µM; with Colo320DM cells (Homo sapiens, COLO 320DM), 6.99 ± 1.23 µM; in the series on HT29 cells it was 3.88 ± 2.13 µM; in the series with Caco2 cells it was 2.85 ± 0.712 µM; in series [2] (Sus scrofa), 0.739 ± 0.082 µM.
Consider vitamin A, for which the “P-gp inhibition and drug uptake” value at P-gp was “inhibit P-gp and increase drug uptake”. For the same compound, the “potency of irinotecan in combination with predicted P-gp modulator” value in series [2] (ex vivo CRC platform, FIGS. 8B-8C, one-way ANOVA p<0.05) is given as “significantly increased the potency irinotecan”.
On to `CS(=O)(=O)CCNCc1ccc(-c2ccc3ncnc(Nc4ccc(OCc5cccc(F)c5)c(Cl)c4)c3c2)o1` [Lapatinib, lapatinib], for which the IC50 in series [1] (Sus scrofa) was found to be 0.39 ± 0.21 µM; in series [2] (Sus scrofa) it was 0.499 ± 0.087 µM.
Consider `O=C1[O][Pt]2([NH][C@@H]3CCCC[C@H]3[NH]2)[O]C1=O` [Oxiliplatin, oxaliplatin], for which the half-maximal inhibitory concentration (IC50) with HCT15 cells turned out to be 15.5 ± 4.99 µM; in series [1] (System: Organoid (without transplantation into tissue)), 18 ± 4.72 µM; in the series with Colo320DM cells, 10.5 ± 1.71 µM; in series [2] it was 8.61 ± 3.38 µM.
